From paper PMC7845594, “Novel Immune Modulators Enhance Caenorhabditis elegans Resistance to Multiple Pathogens” (mSphere, 2021)

Experiments:
[1] = tested on: C. elegans transcriptome; experiment: Transcriptome profiling (Affymetrix microarrays), differentially expressed genes; type: in vivo, Caenorhabditis elegans; conditions: downregulated genes
Procedure: To gain additional insight into the effect of LK molecules on C. elegans, young-adult, wild-type worms were treated with each drug at 100 µM for 8 h in the absence of pathogen. RNA was collected, and transcriptome profiling was performed.
Data were determined using Affymetrix microarrays, as described in Materials and Methods. Download Table S3, XLSX file, 0.07 MB.
Transcriptome profiling was performed on ∼6,000 wild-type, young adult worms incubated with either LK molecules or DMSO for 8 h. RNA isolation was performed using TRIzol extraction, followed by cleanup using RNeasy columns according to the manufacturer’s protocol. Each condition was analyzed in triplicate. Microarray data have been deposited in the GEO database, accession number GSE137516. […] Clustering and generation of the heat map was performed using Cluster 3.0 ([98]) and Treeview ([99]), respectively. Fold change of genes were normalized to average fold change of that gene over all clustered conditions. Genes and conditions were clustered using Euclidean distance and average linkages. […] Microarray data for non-LK molecules were collected from GEO omnibus. WormEXP was used as a secondary method for confirming statistical significance of potential pathways stimulated by each of the LK molecules ([100]). Gene ontologies were generated using DAVID ([101], [102]).

[2] = tested on: glp-4(bn2) worms; experiment: Longevity (life span) assay; conditions: 50 μM in NGM, E. coli OP50, Fig 3A
Procedure: To test the long-term toxicity of the hit compounds, life span assays were carried out by placing sterile, young adult glp-4(bn2) worms on NGM (standard nematode growth media, defined in Materials and Methods) seeded with Escherichia coli OP50. […] Sterile worms were used to eliminate the need to transfer worms between plates during life span assays, and we elected to use glp-4(bn2) to induce sterility instead of using wild-type worms sterilized with 5-fluoro-2′-deoxyuridine (FUDR) because the interaction of the compounds could generate artifacts during the long course of life span experiments.
Worms were scored daily by prodding. […] The viability was normalized to a DMSO solvent control. […] Error bars represent standard error of the mean.
Worms were picked onto agar plates seeded with 50 µl of concentrated E. coli OP50. Compounds were added to liquid agar before pouring plates. Worms were scored every day for death by prodding with a platinum wire. Worms that escaped the plate or died on the wall of the plate were censored. Each compound was tested in at least three biological replicates, each including 50 to 70 worms.

## CCN(CC)/N=N/c1ccc(C(=O)O)cc1 [LK35]
[1]; Gene C29F4.2, Affy_ID 190884_at
  Fold Change: 0.3931
[1]; Gene C32E8.7, Affy_ID 188220_at
  Fold Change: 0.2903
[1]; Gene C33F10.9, Affy_ID 172834_x_at
  Fold Change: 0.1897
[1]; Gene C34F11.3, Affy_ID 189114_at
  Fold Change: 0.4428
[1]; Gene C34F11.4, Affy_ID 172885_x_at
  Fold Change: 0.1632
[1]; Gene C34F11.6, Affy_ID 172896_x_at
  Fold Change: 0.1976
[1]; Gene C35A5.6, Affy_ID 179396_at
  Fold Change: 0.1353
[1]; Gene C35D10.11, Affy_ID 172630_x_at
  Fold Change: 0.1209
[1]; Gene C44C8.6, Affy_ID 189233_s_at
  Fold Change: 0.3734
[1]; Gene C49F5.1, Affy_ID 174812_at
  Fold Change: 0.237
[1]; Gene C50F7.5, Affy_ID 183381_at
  Fold Change: 0.3778
[1]; Gene CTEL54X.1, Affy_ID 185910_at
  Fold Change: 0.2757
[1]; Gene D1086.2, Affy_ID 177478_at
  Fold Change: 0.1132
[1]; Gene D1086.5, Affy_ID 177666_at
  Fold Change: 0.2318
[1]; Gene D2024.7, Affy_ID 187178_s_at
  Fold Change: 0.4973
[1]; Gene D2045.8, Affy_ID 191879_at
  Fold Change: 0.4257
[1]; Gene D2089.3, Affy_ID 178891_at
  Fold Change: 0.3977
[1]; Gene F02D8.4, Affy_ID 189325_at
  Fold Change: 0.3853
[1]; Gene F07A11.5, Affy_ID 188623_at
  Fold Change: 0.4237
[1]; Gene F08B6.4, Affy_ID 171924_x_at
  Fold Change: 0.4112
[1]; Gene F08G2.1, Affy_ID 192280_s_at
  Fold Change: 0.181
[1]; Gene F53A9.8, Affy_ID 180612_s_at
  Fold Change: 0.2385
[1]; Gene F53F4.13, Affy_ID 182491_at
  Fold Change: 0.306
[1]; Gene F54F11.2, Affy_ID 191753_at
  Fold Change: 0.2877
[1]; Gene F55F3.2, Affy_ID 189534_at
  Fold Change: 0.2425
[1]; Gene F55G1.3, Affy_ID 172702_x_at
  Fold Change: 0.3727
[1]; Gene F58A4.7, Affy_ID 171841_x_at
  Fold Change: 0.2717
[1]; Gene F58A6.8, Affy_ID 172889_x_at
  Fold Change: 0.1742
[1]; Gene F58A6.9, Affy_ID 172743_x_at
  Fold Change: 0.2732
[1]; Gene F58B3.1, Affy_ID 178236_s_at
  Fold Change: 0.3338
[1]; Gene F58G1.4, Affy_ID 177978_at
  Fold Change: 0.2272
[1]; Gene F59B2.5, Affy_ID 187071_at
  Fold Change: 0.4863
[1]; Gene H02I12.6, Affy_ID 172891_x_at
  Fold Change: 0.4113
[1]; Gene H12C20.3, Affy_ID 192782_at
  Fold Change: 0.1769
[1]; Gene H12D21.1, Affy_ID 172431_x_at
  Fold Change: 0.176
[1]; Gene H36L18.2, Affy_ID 179787_at
  Fold Change: 0.4486
[1]; Gene K02C4.2, Affy_ID 178299_at
  Fold Change: 0.2893
[1]; Gene K02D7.1, Affy_ID 189003_s_at
  Fold Change: 0.4157
[1]; Gene K03H1.10, Affy_ID 179875_at
  Fold Change: 0.3898
[1]; Gene K03H6.2, Affy_ID 183309_at
  Fold Change: 0.3456
[1]; Gene K05F1.2, Affy_ID 172815_x_at
  Fold Change: 0.2488
[1]; Gene K05F1.7, Affy_ID 172904_x_at
  Fold Change: 0.1812
[1]; Gene K06C4.12, Affy_ID 172685_x_at
  Fold Change: 0.3916
[1]; Gene K07E8.3, Affy_ID 180256_at
  Fold Change: 0.04574
[1]; Gene K07F5.2, Affy_ID 172852_x_at
  Fold Change: 0.1696
[1]; Gene K07F5.3, Affy_ID 172907_x_at
  Fold Change: 0.1824
[1]; Gene K07F5.5, Affy_ID 172245_x_at
  Fold Change: 0.3189
[1]; Gene K08F4.8, Affy_ID 172934_x_at
  Fold Change: 0.1666
[1]; Gene K08F8.4, Affy_ID 193649_s_at
  Fold Change: 0.4028
[1]; Gene K10F12.4, Affy_ID 185815_at
  Fold Change: 0.3079
[1]; Gene M01D7.5, Affy_ID 173242_s_at
  Fold Change: 0.2324
[1]; Gene M05D6.7, Affy_ID 193914_at
  Fold Change: 0.3025
[1]; Gene M6.1, Affy_ID 193073_at
  Fold Change: 0.2608
[1]; Gene M18.1, Affy_ID 173632_s_at
  Fold Change: 0.1786
[1]; Gene M163.1, Affy_ID 177298_at
  Fold Change: 0.4161
[1]; Gene R01E6.3, Affy_ID 189628_at
  Fold Change: 0.3449
[1]; Gene R03E9.1, Affy_ID 193723_s_at
  Fold Change: 0.1079
[1]; Gene R04B5.9, Affy_ID 191440_at
  Fold Change: 0.2481
[1]; Gene R05F9.3, Affy_ID 172725_x_at
  Fold Change: 0.3857
[1]; Gene R05F9.8, Affy_ID 172724_x_at
  Fold Change: 0.1853
[1]; Gene R05G6.10, Affy_ID 192058_at
  Fold Change: 0.3689
[1]; Gene R07B1.3, Affy_ID 190822_s_at
  Fold Change: 0.3753
[1]; Gene R12C12.1, Affy_ID 190616_at
  Fold Change: 0.3455
[1]; Gene R12E2.9, Affy_ID 180698_s_at
  Fold Change: 0.2329
[1]; Gene R52.3, Affy_ID 177369_at
  Fold Change: 0.433
[1]; Gene T01C3.4, Affy_ID 188106_at
  Fold Change: 0.01178
[1]; Gene T01D3.6, Affy_ID 194060_s_at
  Fold Change: 0.3484
[1]; Gene T02B11.3, Affy_ID 174051_s_at
  Fold Change: 0.4315
[1]; Gene T03D8.2, Affy_ID 190280_at
  Fold Change: 0.4443
[1]; Gene T07C4.4, Affy_ID 178149_s_at
  Fold Change: 0.4269
[1]; Gene T07G12.5, Affy_ID 188496_s_at
  Fold Change: 0.1018
[1]; Gene T08B1.6, Affy_ID 192296_at
  Fold Change: 0.1305
[1]; Gene T08B2.12, Affy_ID 184685_s_at
  Fold Change: 0.1145
[1]; Gene T09F5.9, Affy_ID 188947_at
  Fold Change: 0.2413
[1]; Gene T15B7.9, Affy_ID 182858_at
  Fold Change: 0.3683
[1]; Gene T19H5.4, Affy_ID 186755_s_at
  Fold Change: 0.3412
[1]; Gene T20B3.2, Affy_ID 188278_s_at
  Fold Change: 0.3943
[1]; Gene T20D4.11, Affy_ID 184438_at
  Fold Change: 0.05764
[1]; Gene T20G5.7, Affy_ID 172218_x_at
  Fold Change: 0.3082
[1]; Gene T22H2.6, Affy_ID 180962_s_at
  Fold Change: 0.3753
[2]
  TD50 (time to 50% death), life span: 7.7 days
